Data from article PMC4965148 (PLoS ONE, 2016).
Several values for one entry are separate records, joined by “and”; a condition that tells them apart may be missing. Identical values can stand only once. Like-named read-outs stand apart in the source and are kept apart here.

Columns and labels:
Rat Brain α7 nAChR = Rat Brain α7 nAChR (Rattus norvegicus, UniProt Q05941); experiment: [3H]-A-585539 filtration binding
CB1 = CB1 (Homo sapiens, UniProt P21554); experiment: Selectivity panel, binding; conditions: read-out: % inhibition @ 10 µM
human 5-HT3A receptors = target: T1, human 5-HT3A receptors (Homo sapiens, UniProt P46098); experiment: biochemical
T1 sequence (P46098 24-478): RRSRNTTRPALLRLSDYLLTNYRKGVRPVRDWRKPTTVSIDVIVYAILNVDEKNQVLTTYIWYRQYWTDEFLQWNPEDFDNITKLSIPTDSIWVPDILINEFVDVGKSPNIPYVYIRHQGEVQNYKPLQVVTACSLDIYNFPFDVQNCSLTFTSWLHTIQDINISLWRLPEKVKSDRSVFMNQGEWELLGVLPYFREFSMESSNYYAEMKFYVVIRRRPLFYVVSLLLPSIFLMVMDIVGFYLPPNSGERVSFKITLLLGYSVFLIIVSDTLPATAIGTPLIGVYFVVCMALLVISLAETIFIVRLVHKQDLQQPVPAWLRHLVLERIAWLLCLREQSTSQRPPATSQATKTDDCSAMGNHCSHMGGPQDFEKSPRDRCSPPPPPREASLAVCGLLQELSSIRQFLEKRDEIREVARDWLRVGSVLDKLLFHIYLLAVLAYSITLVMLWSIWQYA

5-HT transporter = 5-HT transporter (Homo sapiens, UniProt P31645); experiment: Selectivity panel, binding
[1] = system: MK-801 treated Sprague Dawley rats; experiment: Rat MK-801 set shift procedure; format: in vivo
Description: Studies followed the methods described in detail in [19] and are briefly summarized here. All rats were singly housed and food-restricted (15g/rat/day) for 7 days prior to initiation of training and for the duration of the study. At the time of testing, the average (± SEM) body weight for individual treatment groups ranged from 168 ± 4 g to 180 ± 6 g. Prior to the study several habituation sessions were conducted to familiarize subjects to the maze and task requirements. The maze consisted of 4 arms (40 cm long x 14 cm wide x 20 cm high) arranged in a ‘+’ configuration and the walls and floor of each arm were distinct and colored either black or white with either a rough or smooth texture (i.e. 1 arm with each of the following combinations: white/smooth, white/rough, black/smooth, black/rough). […] The arm opposite the blocked arm was designated as the ‘start arm’ and only 1 of the 2 remaining arms was baited with food pellets. The set shift procedure comprised 2 test sessions conducted over 2 consecutive days. On the first day (Set 1) rats were required to learn the association of either the color or texture of the maze arms with the location of a food reward. Animals were randomly assigned a correct exemplar within a given dimension as being predictive of reward with 50% of the rats assigned color and 50% assigned texture. Each rat was given a maximum of 120 trials on the maze which was rotated 90 degrees between successive trials so that the adjacent arms now became either the ‘start arm’ or the arm that was blocked. Animals were allowed to visit 1 of the 2 open arms and the trial recorded as correct if the arm with the pre-assigned exemplar was visited and the food reward retrieved. The inter-trial interval was 15 s. Rats were required to achieve a performance criterion of 8 consecutive entries into the rewarded arm at which point testing stopped and the animal was presumed to have learnt the association between the correct exemplar in the assigned dimension and food reward. On day 2 (Set 2) animals were again tested in the maze configured as described for Set 1 with the exception that the dimension predicting food reward was now switched (i.e. animals trained on color for Set 1 were switched to texture and visa versa). Correct performance was again defined as 8 consecutive entries into the rewarded arm with a maximal number of 80 trials allowed. All dosing was administered on day 2 prior to Set 2 testing.

5-HT1A = 5-HT1A (Homo sapiens, UniProt P08908); experiment: Selectivity panel, binding; conditions: read-out: % inhibition @ 10 µM
Muscarinic M2 = Muscarinic M2 (Homo sapiens, UniProt P08172); experiment: Selectivity panel, binding
[2] = system: neonatal PCP treated rats; experiment: Rat neonatal PCP mismatch negativity
Description: Adult male rats treated neonatally with PCP were implanted with epidural screw electrodes at the following co-ordinates under isoflurane anesthesia: 6 mm rostral and 1 mm off midline to the left from bregma; 5.5 mm rostral to interaural line and 1 mm off to the right from midline. Following recovery EEG recordings were collected from conscious rats housed in individual sound attenuated chambers (Med Associates, St Albans, VT) with the recording electrodes tethered through a low torque commutator system (Plastics One Inc, Roannoke, VA) to a differential amplifier (gain x1000; Warner Instruments, Hamden, CT). […] Baseline EEG was first recorded using Spike v5.19 or later software (CED, Cambridge, UK) to ensure electrical connectivity and an acceptable EEG signal. A simultaneous video was used to assess the general state of the animals during the recordings. […] Tones (70 dB) were delivered through a speaker mounted in the top center of the housing chamber and presented at 450 ms intervals. In each experimental session 700 standard and 100 deviant tones were presented. Data were analyzed using Signal v4.09 software (CED, Cambridge, UK). Artifact free trials were visually identified, corrected for baseline shift using the first 100 ms of the pre-stimulus baseline, 30 Hz low-pass filtered using a second order Butterworth digital filter and averaged to give evoked potential for each subject.

Androgen receptor = Androgen receptor (Rattus norvegicus, UniProt P15207); experiment: Selectivity panel, binding
α7 nAChR [3] = target: T2, α7 nAChR (Rattus norvegicus, UniProt Q05941); experiment: Ex vivo α7 nAChR occupancy ([3H]-A-585539); format: in vivo; conditions: for receptor occupancy at 10 mg/kg: rat
T2 construct: One forebrain hemisphere from each animal was thawed and homogenized in assay buffer; from tissue; host or cells: forebrain homogenate of dosed male Sprague Dawley rats

α7 nAChR [4] = target: T3, α7 nAChR (Mus musculus, UniProt P49582); experiment: Ex vivo α7 nAChR occupancy ([3H]-A-585539); format: in vivo
T3 construct: One forebrain hemisphere from each animal was thawed and homogenized in assay buffer; from tissue; host or cells: forebrain homogenate of dosed male C57Bl/6 mice
Description: Occupancy determinations were made either on completion of behavioral testing or in satellite groups of animals dosed in parallel with behavioral testing. At specified time points after dosing, the forebrain (for occupancy), the remaining hindbrain (for brain drug exposure) and plasma were collected, frozen in chilled isopentane and stored at -80°C until assayed. […] Homogenized tissue aliquots were frozen immediately and stored at -80°C. […] The filters were washed with ice-cold assay buffer, punched into a clear plate and 200 μl scintillation fluid added per well. Bound radioactivity was measured using a Wallac Microbeta liquid scintillation counter. Specific binding was calculated by subtracting the value of the non-specific binding from that of the total binding in each sample. The percent occupancy was calculated as [1 –(specific binding in drug treated mice/specific binding in vehicle treated mice)] x 100.

PDE4 = experiment: Selectivity panel, enzyme; format: biochemical; conditions: Human
PDE3 = experiment: Selectivity panel, enzyme; format: biochemical; conditions: Human
Acetylcholinesterase = Acetylcholinesterase (Electrophorus electricus, UniProt O42275); experiment: Selectivity panel, enzyme; format: biochemical; conditions: Eel
GABA-A α1β2γ2 = GABA-A α1β2γ2 (Homo sapiens, UniProt P14867+P18507+P47870); experiment: Selectivity panel, functional; format: cell-based
Adrenergic α2C = Adrenergic α2C (Homo sapiens, UniProt P18825); experiment: Selectivity panel, binding
Sequence of Adrenergic α2C (P18825 whole entry): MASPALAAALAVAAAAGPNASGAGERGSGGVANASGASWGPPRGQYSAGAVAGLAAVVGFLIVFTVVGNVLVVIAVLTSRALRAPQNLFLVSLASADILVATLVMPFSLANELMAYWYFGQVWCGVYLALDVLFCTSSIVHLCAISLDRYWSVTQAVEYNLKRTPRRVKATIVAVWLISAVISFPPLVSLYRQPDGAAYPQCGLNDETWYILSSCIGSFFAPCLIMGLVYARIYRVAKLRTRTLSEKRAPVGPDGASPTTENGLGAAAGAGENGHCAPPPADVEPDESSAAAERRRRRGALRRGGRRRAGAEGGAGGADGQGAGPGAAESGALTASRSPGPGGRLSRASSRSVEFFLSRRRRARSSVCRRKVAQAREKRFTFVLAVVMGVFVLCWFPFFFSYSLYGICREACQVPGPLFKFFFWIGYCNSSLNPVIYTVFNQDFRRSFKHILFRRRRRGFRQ

Sequence of Rat Brain α7 nAChR (Q05941 23-502): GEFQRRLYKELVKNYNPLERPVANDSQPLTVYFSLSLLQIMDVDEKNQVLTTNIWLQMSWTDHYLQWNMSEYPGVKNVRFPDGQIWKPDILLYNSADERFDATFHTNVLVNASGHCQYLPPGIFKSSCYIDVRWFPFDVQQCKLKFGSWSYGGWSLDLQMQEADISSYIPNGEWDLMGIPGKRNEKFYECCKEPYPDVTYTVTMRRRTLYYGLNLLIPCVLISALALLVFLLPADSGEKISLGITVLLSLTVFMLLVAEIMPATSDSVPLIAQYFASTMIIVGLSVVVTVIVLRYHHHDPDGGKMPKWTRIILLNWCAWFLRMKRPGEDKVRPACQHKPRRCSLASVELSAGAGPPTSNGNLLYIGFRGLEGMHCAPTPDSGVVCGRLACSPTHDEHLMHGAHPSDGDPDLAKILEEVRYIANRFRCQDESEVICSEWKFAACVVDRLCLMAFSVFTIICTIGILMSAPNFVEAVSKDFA
T2 sequence (Q05941 23-502): as above
T3 sequence (P49582 23-502): as the sequence (Q05941 23-502) above, with A402T counted along it
Sequence of Acetylcholinesterase (O42275 24-633): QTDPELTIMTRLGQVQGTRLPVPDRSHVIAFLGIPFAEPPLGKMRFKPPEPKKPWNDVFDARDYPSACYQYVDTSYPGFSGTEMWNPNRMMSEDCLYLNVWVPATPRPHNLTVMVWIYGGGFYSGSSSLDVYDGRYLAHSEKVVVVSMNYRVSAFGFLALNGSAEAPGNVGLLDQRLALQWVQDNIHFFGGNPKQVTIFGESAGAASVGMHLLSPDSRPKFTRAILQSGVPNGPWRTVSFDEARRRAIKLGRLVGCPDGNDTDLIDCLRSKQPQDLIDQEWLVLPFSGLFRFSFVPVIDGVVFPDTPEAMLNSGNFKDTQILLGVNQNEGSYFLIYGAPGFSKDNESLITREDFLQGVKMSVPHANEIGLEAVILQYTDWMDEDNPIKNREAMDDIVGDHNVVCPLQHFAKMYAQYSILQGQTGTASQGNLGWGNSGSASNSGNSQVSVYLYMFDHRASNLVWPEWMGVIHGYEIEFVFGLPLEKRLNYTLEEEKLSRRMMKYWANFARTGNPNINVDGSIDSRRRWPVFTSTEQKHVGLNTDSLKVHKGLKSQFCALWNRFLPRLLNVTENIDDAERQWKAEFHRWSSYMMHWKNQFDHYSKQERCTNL
Sequence of 5-HT1A (P08908 whole entry): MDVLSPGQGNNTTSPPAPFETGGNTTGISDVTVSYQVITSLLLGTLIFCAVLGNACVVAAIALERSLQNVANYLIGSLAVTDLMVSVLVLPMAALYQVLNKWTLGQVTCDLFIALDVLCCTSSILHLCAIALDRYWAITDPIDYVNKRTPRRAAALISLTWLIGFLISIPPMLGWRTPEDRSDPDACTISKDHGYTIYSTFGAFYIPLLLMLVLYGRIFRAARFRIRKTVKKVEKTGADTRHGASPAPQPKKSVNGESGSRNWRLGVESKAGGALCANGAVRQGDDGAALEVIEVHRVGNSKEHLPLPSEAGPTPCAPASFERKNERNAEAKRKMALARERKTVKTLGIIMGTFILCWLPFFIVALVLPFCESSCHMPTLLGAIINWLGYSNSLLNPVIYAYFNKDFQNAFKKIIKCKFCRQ
Sequence of Muscarinic M2 (P08172 whole entry): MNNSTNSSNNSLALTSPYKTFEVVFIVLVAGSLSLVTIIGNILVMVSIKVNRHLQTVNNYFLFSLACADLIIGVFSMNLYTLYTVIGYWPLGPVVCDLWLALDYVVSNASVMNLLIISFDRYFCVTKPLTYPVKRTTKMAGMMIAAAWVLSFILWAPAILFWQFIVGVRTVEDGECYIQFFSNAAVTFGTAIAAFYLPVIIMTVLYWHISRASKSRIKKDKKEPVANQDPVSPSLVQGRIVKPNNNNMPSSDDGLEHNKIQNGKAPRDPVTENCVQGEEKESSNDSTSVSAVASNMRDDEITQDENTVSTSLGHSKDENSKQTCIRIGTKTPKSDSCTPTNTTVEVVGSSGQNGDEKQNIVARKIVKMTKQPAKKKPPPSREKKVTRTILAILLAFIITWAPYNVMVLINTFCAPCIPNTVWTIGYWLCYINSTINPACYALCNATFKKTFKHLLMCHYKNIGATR
Sequence of GABA-A α1β2γ2 (P14867 28-456): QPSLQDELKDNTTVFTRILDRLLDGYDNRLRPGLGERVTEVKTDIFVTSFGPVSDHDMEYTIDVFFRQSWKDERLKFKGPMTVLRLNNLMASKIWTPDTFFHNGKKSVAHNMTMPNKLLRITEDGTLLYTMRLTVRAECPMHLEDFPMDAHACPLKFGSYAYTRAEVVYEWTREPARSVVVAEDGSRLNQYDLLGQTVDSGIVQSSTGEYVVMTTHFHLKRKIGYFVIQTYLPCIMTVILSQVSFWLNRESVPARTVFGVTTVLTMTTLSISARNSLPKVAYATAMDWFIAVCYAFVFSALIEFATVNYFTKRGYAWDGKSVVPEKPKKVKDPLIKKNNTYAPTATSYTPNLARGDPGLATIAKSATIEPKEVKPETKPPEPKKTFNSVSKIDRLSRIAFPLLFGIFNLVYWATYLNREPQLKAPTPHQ
Sequence of GABA-A α1β2γ2 (P47870 25-512 limits assumed): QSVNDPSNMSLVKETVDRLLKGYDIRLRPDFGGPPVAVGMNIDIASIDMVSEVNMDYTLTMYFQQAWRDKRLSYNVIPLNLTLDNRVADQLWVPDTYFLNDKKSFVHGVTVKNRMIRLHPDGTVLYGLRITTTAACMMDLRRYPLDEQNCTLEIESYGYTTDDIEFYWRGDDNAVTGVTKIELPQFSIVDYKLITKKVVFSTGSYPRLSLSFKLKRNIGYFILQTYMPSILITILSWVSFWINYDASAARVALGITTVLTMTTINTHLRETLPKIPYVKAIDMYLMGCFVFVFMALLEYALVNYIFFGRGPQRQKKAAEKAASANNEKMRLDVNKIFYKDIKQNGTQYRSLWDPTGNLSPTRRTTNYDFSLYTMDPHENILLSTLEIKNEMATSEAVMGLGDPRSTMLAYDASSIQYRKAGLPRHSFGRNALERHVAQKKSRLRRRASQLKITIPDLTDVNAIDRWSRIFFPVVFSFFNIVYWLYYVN
Sequence of GABA-A α1β2γ2 (P18507 40-475): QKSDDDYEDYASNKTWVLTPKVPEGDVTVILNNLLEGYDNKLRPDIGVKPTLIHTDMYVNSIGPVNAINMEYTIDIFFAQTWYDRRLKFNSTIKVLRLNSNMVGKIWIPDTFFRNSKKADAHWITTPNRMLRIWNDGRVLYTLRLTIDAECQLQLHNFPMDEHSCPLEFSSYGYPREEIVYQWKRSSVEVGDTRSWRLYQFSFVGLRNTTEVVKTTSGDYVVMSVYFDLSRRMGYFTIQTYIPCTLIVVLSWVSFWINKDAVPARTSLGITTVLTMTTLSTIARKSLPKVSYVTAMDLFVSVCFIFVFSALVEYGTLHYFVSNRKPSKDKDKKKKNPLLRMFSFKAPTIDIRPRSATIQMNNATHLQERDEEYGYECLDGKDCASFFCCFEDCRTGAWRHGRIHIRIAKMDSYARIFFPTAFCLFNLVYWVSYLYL
Sequence of CB1 (P21554 whole entry): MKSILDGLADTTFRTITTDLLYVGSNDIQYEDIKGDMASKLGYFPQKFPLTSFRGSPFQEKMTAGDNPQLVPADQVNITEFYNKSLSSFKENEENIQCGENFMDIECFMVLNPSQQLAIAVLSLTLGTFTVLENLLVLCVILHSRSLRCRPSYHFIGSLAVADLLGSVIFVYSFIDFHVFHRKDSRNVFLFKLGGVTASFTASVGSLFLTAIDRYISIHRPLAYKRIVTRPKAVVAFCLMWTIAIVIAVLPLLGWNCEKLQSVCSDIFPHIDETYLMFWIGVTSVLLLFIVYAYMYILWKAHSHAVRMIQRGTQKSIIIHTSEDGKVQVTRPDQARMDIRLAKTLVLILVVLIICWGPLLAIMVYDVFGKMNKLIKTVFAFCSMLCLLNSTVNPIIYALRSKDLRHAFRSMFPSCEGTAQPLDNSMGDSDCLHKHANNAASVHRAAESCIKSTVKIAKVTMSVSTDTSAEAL
Sequence of 5-HT transporter (P31645 whole entry): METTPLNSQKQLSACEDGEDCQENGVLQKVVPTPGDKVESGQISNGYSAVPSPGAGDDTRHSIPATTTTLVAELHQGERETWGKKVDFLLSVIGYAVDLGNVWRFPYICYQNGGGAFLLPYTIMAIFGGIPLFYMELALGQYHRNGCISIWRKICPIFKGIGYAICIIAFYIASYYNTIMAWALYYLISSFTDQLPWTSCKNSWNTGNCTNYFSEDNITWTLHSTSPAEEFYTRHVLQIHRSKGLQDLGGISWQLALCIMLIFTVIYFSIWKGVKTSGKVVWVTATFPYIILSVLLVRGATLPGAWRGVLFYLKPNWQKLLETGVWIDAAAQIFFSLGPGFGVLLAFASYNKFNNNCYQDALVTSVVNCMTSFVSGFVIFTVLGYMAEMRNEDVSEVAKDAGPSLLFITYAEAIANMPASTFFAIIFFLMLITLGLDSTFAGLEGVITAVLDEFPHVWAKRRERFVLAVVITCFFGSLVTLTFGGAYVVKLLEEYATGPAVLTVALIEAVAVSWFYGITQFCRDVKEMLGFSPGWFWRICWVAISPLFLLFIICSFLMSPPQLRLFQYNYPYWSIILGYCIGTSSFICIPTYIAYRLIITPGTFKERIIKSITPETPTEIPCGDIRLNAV

c1cn(-c2cc(NC3=NC[C@@]4(CN5CCC4CC5)O3)ncn2)cn1 [BMS-933043, (2R)-N-(6-(1H-imidazol-1-yl)-4-pyrimidinyl)-4'H-spiro[4-azabicyclo[2.2.2]octane-2,5'-[1,3]oxazol]-2'-amine]
Ki (Rat Brain α7 nAChR; Rat Brain α7 nAChR Ki (individual)): 2.67 nM and 2.99 nM and 3.08 nM and 3.74 nM and 3.2 nM and 3.82 nM
Ki (Rat Brain α7 nAChR; Rat Brain α7 nAChR Mean ± SD Ki): 3 nM
Ki (Rat Brain α7 nAChR; read-out: Rat Brain α7 nAChR Mean ± SD Ki): 3.3 nM
inhibition at 10 µM (CB1): -5%
Ki (human 5-HT3A receptors; HEK293/human 5-HT3A Ki (individual), individual determinations): 2310 nM and 2590 nM
Ki (human 5-HT3A receptors; human 5-HT3A mean Ki ± SD): 2450 nM
IC50 (5-HT transporter): > 30000 nM
Number of trials to criteria Mean ± SEM ([1]; 0.3 mg/kg po / MK-801, 0.3-3 mg/kg study): 66.4 ± 3.2
Number of trials to criteria Mean ± SEM ([1]; 1 mg/kg po / MK-801, 0.3-3 mg/kg study): 54.4 ± 4.8
Number of trials to criteria Mean ± SEM ([1]; 3 mg/kg po / MK-801, 0.3-3 mg/kg study): 50.3 ± 4.3
Number of trials to criteria Mean ± SEM ([1]; 3 mg/kg po / MK-801, 3-30 mg/kg study): 48.3 ± 5.8
Number of trials to criteria Mean ± SEM ([1]; 10 mg/kg po / MK-801, 3-30 mg/kg study): 54.0 ± 3.2
Number of trials to criteria Mean ± SEM ([1]; 30 mg/kg po / MK-801, 3-30 mg/kg study): 68.0 ± 4.7
perseverative errors in MK-801-treated animals ([1]; po): decreased perseverative errors
inhibition at 10 µM (5-HT1A): 9%
IC50 (Muscarinic M2): 19100 nM
deviance detection (MMN) ([2]; 0.3 mg/kg sc): just failing to achieve statistical significance
AUC (150-200 ms) of difference wave, Mean ([2]; Study 1, 0.01 mg/kg sc): -6.608e-005
AUC (150-200 ms) of difference wave, Mean ([2]; Study 1, 0.1 mg/kg sc): -0.0001188
AUC (150-200 ms) of difference wave, Mean ([2]; Study 2, 0.03 mg/kg sc): -0.0002362
AUC (150-200 ms) of difference wave, Mean ([2]; Study 2, 0.1 mg/kg sc (so in the source)): -0.0001715
AUC (150-200 ms) of difference wave, Mean ([2]; Study 3, 1 mg/kg sc): -0.000159
AUC (150-200 ms) of difference wave, Mean ([2]; Study 3, 3 mg/kg sc): -0.0001341
deviance detection (MMN) ([2]; doses of 0.03, 0.1, 1 and 3 mg/kg sc): significant deviance detection from a hypothetical zero
Active dose range, Neonatal PCP MMN ([2]; sc): 0.03–3.0 (sc) mg/kg
IC50 (Androgen receptor): > 150000 nM
% ex vivo α7 nAChR occupancy (α7 nAChR [3]; 3 mg/kg po, 90 min, individual rats): 65% and 63% and 62% and 28%
% ex vivo α7 nAChR occupancy (α7 nAChR [3]; 10 mg/kg po, 90 min): 83% and 78% and 77% and > 75%
% ex vivo α7 nAChR occupancy (α7 nAChR [3]; 30 mg/kg po, 90 min, individual rats): 82% and 90% and 67% and 69%
receptor occupancy at 10 mg/kg (α7 nAChR [3]; po, 10 mg/kg po, 90 min, read-out: % ex vivo α7 nAChR occupancy): 80%
receptor occupancy at 10 mg/kg (α7 nAChR [3]; rats, 10 mg/kg sc to 30 mg/kg po, read-out: ex vivo α7 nAChR occupancy at doses associated with a loss of efficacy): ≥ 80%
EC50 (α7 nAChR [3]; rats, read-out: total plasma concentration achieving 50% ex vivo α7 nAChR occupancy): 810 nM
EC50 (α7 nAChR [4]): 1900 nM
% ex vivo α7 nAChR occupancy (α7 nAChR [4]; 0.3 mg/kg sc, 30 min, individual mice): 11.2% and -5.2% and 7.5% and -6.3%
% ex vivo α7 nAChR occupancy (α7 nAChR [4]; 1 mg/kg sc, 30 min): 18.3% and 25.5% and 25.4% and ~ 20%
% ex vivo α7 nAChR occupancy (α7 nAChR [4]; 3 mg/kg sc, 30 min, individual mice): 56.2% and 44.9% and 45.1%
% ex vivo α7 nAChR occupancy (α7 nAChR [4]; 10 mg/kg sc, 30 min): 76.4% and 74.8% and 75.4% and > 75%
% ex vivo α7 nAChR occupancy (α7 nAChR [4]; 100 mg/kg sc, 30 min, individual mice): 93.3% and 94.1% and 92.1%
receptor occupancy at 1 mg/kg (α7 nAChR [4]; mouse, sc, read-out: % ex vivo α7 nAChR occupancy, 1 mg/kg sc, 30 min): 23.9%
receptor occupancy at 3 mg/kg (α7 nAChR [4]; mouse, sc, read-out: % ex vivo α7 nAChR occupancy, 3 mg/kg sc, 30 min, individual mice): 41.3%
receptor occupancy at 10 mg/kg (α7 nAChR [4]; mouse, sc, read-out: % ex vivo α7 nAChR occupancy, 10 mg/kg sc, 30 min): 78.5%
receptor occupancy at 100 mg/kg (α7 nAChR [4]; mouse, sc, read-out: % ex vivo α7 nAChR occupancy, 100 mg/kg sc, 30 min, individual mice): 91.3%
IC50 (PDE4): > 30000 nM
IC50 (PDE3): > 30000 nM
IC50 (Acetylcholinesterase): > 60000 nM
IC50 (GABA-A α1β2γ2): > 30000 nM
IC50 (Adrenergic α2C): > 30000 nM
